{"source": "patent US6444870B1", "about": "“Methods for assessing the role of calcineurin immunosuppression and neurotoxicity” (President and Fellows of Harvard College, priority 1995, dated 2002)", "key": {"calcineurin": {"system": "calcineurin", "test": "Calcineurin phosphatase assay in T cell extracts (okadaic acid resistant, EGTA-sensitive phosphatase activity)", "type": "biochemical, mouse", "protocol": "Spleen and lymph nodes were harvested from wild type and mutant mice and were dispersed into single cell suspension. Red blood cells were removed by lysis. The final concentrations were adjusted to 1.5-2.0×10^8 cells suspended in 2 ml of PBS containing 5% fetal calf serum and 4 mM EDTA. The cell suspensions were enriched for T cells using Mouse T Cell Enrichment Column (R&D Systems). T cells were then lysed with lysis buffer containing 50 mM Tris-HCl, pH 7.5, 15% glycerol, 0.1 mM EGTA, 1 mM EDTA, 0.5 mM DTT, […] PMSF, 50 μg/ml soybean trypsin inhibitor, 5 μg/ml aprotinin, 5 μg/ml leupeptin. Aliquots of 8×10^6 cells per 50 μl of lysis buffer were frozen until further analysis.\nThe phosphatase assay is a modified version of a previously described procedure (Manalan and Klee, 1983; Liu, 1991). The reaction mixture (total volume 60 μl) contained 50 mM MES (pH6.0), 100 mM NaCl, 6 mM Mg(OAc)2, […], […] (Fraction V), […] okadaic acid (Calbiochem), […] [^33P] RII peptide (600 cpm/pmole), and T cell or brain extract. […] of the terminated reaction mixture was applied per well, washed and counted in a Top-Count scintillation counter (Packard Instrument Co.). […]\nResidual calcineurin activity, (i.e., okadaic acid resistant and EGTA-sensitive phosphatase activity) was measured in the same CNAα^−/− T cell extracts (Martin and Wiederrecht, in press). […]"}, "T cells": {"system": "T cells", "test": "Mitogenic stimulation of T cells: proliferation and IL-2 and IL-4 production, drug sensitivity", "type": "cell-based, mouse", "from_the_text": "We tested the responses of the wild type and mutant T cells to mitogenic stimulation with phorbol 12-myristate 13 acetate (PMA) plus ionomycin, concanavalin A (ConA), and anti-CD3ε antibodies. All three mitogens induced the CNAα^−/− T cells to proliferate as rapidly as the wild type T-cells. Further, stimulated mutant and wild type T cells produced the same amounts of IL-2 and IL-4 and expressed normal level of IL-2 receptor on the surface. Thus, CNAα^−/− T cells appeared to be functional when stimulated by mitogens in vitro.\nWe tested the drug sensitivity of the CNAα^−/− T cells. […] CNA^−/− T cells were even more sensitive to these drugs than normal T cells, with a IC50 of 2-7 fold lower than that of the wild type T cells."}}}
{"substance": "FK506", "values": [{"measurement": "inhibition of (residual) calcineurin phosphatase activity", "setting": "calcineurin; CNAα−/− mutant T cell extracts", "value": "90-95%"}, {"measurement": "inhibition of calcineurin phosphatase activity", "setting": "calcineurin; wild type T cell extracts", "value": "90-95%"}, {"measurement": "proliferation and lymphokine production of CNAα−/− T cells, inhibitability", "setting": "T cells; CNAα−/− T cells", "value": "fully inhibitable"}, {"measurement": "inhibition of T cells as measured by proliferation and by IL-2 and IL-4 production", "setting": "T cells; CNAα−/− and wild type T cells stimulated with PMA plus ionomycin, ConA, or αCD3ε antibody", "value": "inhibited"}]}
